Results as given in publication PMC13266999, “Designing Antibiotics with Inherent Resistance to Efflux as a Strategy to Revive Discovery against Multidrug-Resistant Pathogens” (Journal of Medicinal Chemistry, 2026).
In brackets after ≈: the same amount, converted by molar mass. Read-outs that look alike come from different tables or passages of the source.

Key:
[1] = reported values; cited from earlier work
[2] = tested on: S. aureus; experiment: MIC (microbroth dilution); type: cell-based, Staphylococcus aureus; conditions: for MIC: Staphylococcus aureus
Method: (§1) All bacteria were maintained on tryptic soy agar (TSA), except Streptococcus spp., which were maintained on Columbia agar plates containing 5% horse blood. […] Bacteria were grown to stationary phase in liquid culture overnight, with shaking at 200 rpm, before being back diluted to the relevant starting concentration for each assay below. MICs were measured by the microbroth dilution method. […] Absorbance at OD600 was read on a CLARIOstar spectrophotometer (BMG Labtech) and the MIC was defined as the minimum concentration of compound where no visible growth was detected. […] MICs were also performed in the presence of the outer membrane permeator, polymyxin b nonapeptide (PMBN) following the same MIC method but with the following variation. The 2-fold dilution series of compound was prepared as above, then 50 μL of PMBN at a final concentration of 30 μg/mL was added to relevant wells, while 50 μL/well of blank media was added to the remaining wells. Bacteria were then added at 50 μL/well for a starting concentration as above. […] The MICs were read and defined as above. All animal procedures were performed by the contract research organization Pharmacology Discovery Services Taiwan in accordance with the Guide for the Care and Use of Laboratory Animals. The procedures were approved by the Institutional Ethics Committee of Pharmacology Discovery Services Taiwan, Ltd. (approval no. AB127662), in compliance with animal welfare legislation in Taiwan.

[3] = tested on: Acinetobacter baumannii; experiment: MIC (microbroth dilution); type: cell-based
Method: All bacteria were maintained on tryptic soy agar (TSA), except Streptococcus spp., which were maintained on Columbia agar plates containing 5% horse blood. All bacterial assays were carried out in tryptic soy broth (TSB), except for Streptococcus spp. which were grown in cation-adjusted Mueller Hinton broth containing 2.5% lysed horse blood. Bacteria were grown to stationary phase in liquid culture overnight, with shaking at 200 rpm, before being back diluted to the relevant starting concentration for each assay below. MICs were measured by the microbroth dilution method. […] Absorbance at OD600 was read on a CLARIOstar spectrophotometer (BMG Labtech) and the MIC was defined as the minimum concentration of compound where no visible growth was detected. The compounds were prepared as a DMSO stock and equivalent concentrations of DMSO had no effect on bacterial growth. MICs were also performed in the presence of the outer membrane permeator, polymyxin b nonapeptide (PMBN) following the same MIC method but with the following variation. The 2-fold dilution series of compound was prepared as above, then 50 μL of PMBN at a final concentration of 30 μg/mL was added to relevant wells, while 50 μL/well of blank media was added to the remaining wells. Bacteria were then added at 50 μL/well for a starting concentration as above. Thirty μg/mL of PMBN had no effect on bacterial growth. The MICs were read and defined as above. All animal procedures were performed by the contract research organization Pharmacology Discovery Services Taiwan in accordance with the Guide for the Care and Use of Laboratory Animals. The procedures were approved by the Institutional Ethics Committee of Pharmacology Discovery Services Taiwan, Ltd. (approval no. AB127662), in compliance with animal welfare legislation in Taiwan.

[4] = tested on: K. pneumoniae; experiment: MIC (microbroth dilution); type: cell-based, Klebsiella pneumoniae; conditions: Klebsiella pneumoniae, read-out: MIC
Method: as §1

[5] = tested on: E. coli; experiment: MIC (microbroth dilution); type: cell-based; conditions: Escherichia coli
Method: as §1

[6] = tested on: A. baumannii strain AYE; experiment: Time-kill assay; type: cell-based; conditions: 4 × MIC
Method: Time-kill assays were performed as defined previously.

[7] = tested on: S. aureus; experiment: Serial passaging, MIC of adapted strains; type: cell-based; conditions: Staphylococcus aureus
Method: MICs were performed on the first and 10th passage.

[8] = tested on: NorA overexpressing strain NCTC 13616; experiment: Reserpine growth (efflux inhibition) assay; conditions: 0.5x MIC with vs without reserpine
Method: Statistical analyses were performed with GraphPad Prism V9.5.0. […] Unpaired t tests were used when comparing two samples in the gyrase assays.

## Nc1nc(-n2cc(C(=O)O)c(=O)c3cc(F)c(N4CC(O)C4)c(Cl)c32)c(F)cc1F [delafloxacin]
[1]
  plasma protein binding: 84%

## COc1c(N2CC[C@@H](Nc3ncccn3)C2)c(F)cc2c(=O)c(C(=O)O)cn(C3CC3)c12 [Compound 51, (R)-1-Cyclopropyl-6-fluoro-8-methoxy-4-oxo-7-(3-(pyrimidin-2-ylamino)pyrrolidin-1-yl)-1,4-dihydroquinoline-3-carboxylic acid]
[2]
  fold more active than moxifloxacin: 4–8 fold
[2]; ATCC9144, ATCC 9144, read-out: MIC
  MIC: ≤ 0.03 µg/mL
[2]; NCTC13277, NCTC 13277, read-out: MIC
  MIC: 0.125 to 0.25 µg/mL (≈ 0.284 to 0.569 µM)
[2]; NCTC13616, NCTC 13616, read-out: MIC
  MIC: 0.125 µg/mL (≈ 0.284 µM)
[2]; SA-1199, read-out: MIC
  MIC: 0.004 µg/mL (≈ 0.0091 µM)
[2]; SA-1199B (NorA-overexpressing)
  MIC: 0.004 µg/mL (≈ 0.0091 µM)
[3]; Acinetobacter baumannii, 86, oxa23
  MIC: 16 µg/mL (≈ 36.4 µM)
[3]; Acinetobacter baumannii, A601 colS
  MIC: ≤ 0.03 µg/mL
[3]; Acinetobacter baumannii, ATCC17978, ATCC 17978, read-out: MIC
  MIC: ≤ 0.125 µg/mL
[3]; Acinetobacter baumannii, BAA1709, BAA-1709, read-out: MIC
  MIC: 0.06 µg/mL (≈ 0.137 µM)
[3]; Acinetobacter baumannii, BAA1710, BAA-1710 (AYE), read-out: MIC
  MIC: 4 µg/mL (≈ 9.1 µM)
[3]; Acinetobacter baumannii, BAA2093, BAA-2093, read-out: MIC
  MIC: 0.03 to 0.06 µg/mL (≈ 0.0683 to 0.137 µM)
[3]; Acinetobacter baumannii, NCTC10303, NCTC 10303, read-out: MIC
  MIC: 0.06 µg/mL (≈ 0.137 µM)
[3]; Acinetobacter baumannii, NCTC12156, NCTC 12156, read-out: MIC
  MIC: 0.125 µg/mL (≈ 0.284 µM)
[3]; Acinetobacter baumannii, NCTC13302, NCTC 13302, oxa24, read-out: MIC
  MIC: 4 µg/mL (≈ 9.1 µM)
[3]; Acinetobacter baumannii, NCTC13424, NCTC 13424, oxa23, read-out: MIC
  MIC: > 32 µg/mL
[3]; Acinetobacter baumannii, T strain
  MIC: 8 µg/mL (≈ 18.2 µM)
[3]; Acinetobacter baumannii, UKA1, oxa23, read-out: MIC
  MIC: 2 µg/mL (≈ 4.55 µM)
[3]; Acinetobacter baumannii, UKA2, Low resistance, read-out: MIC
  MIC: 4 µg/mL (≈ 9.1 µM)
[3]; Acinetobacter baumannii, UKA9, read-out: MIC
  MIC: 0.06 µg/mL (≈ 0.137 µM)
[3]; Acinetobacter baumannii, UKA12, oxa23, read-out: MIC
  MIC: 2 µg/mL (≈ 4.55 µM)
[3]; Acinetobacter baumannii, UKA13, oxa23, read-out: MIC
  MIC: 2 µg/mL (≈ 4.55 µM)
[3]; Acinetobacter baumannii, UKA15, oxa23, read-out: MIC
  MIC: 2 µg/mL (≈ 4.55 µM)
[3]; Acinetobacter baumannii, UKA19, read-out: MIC
  MIC: 0.25 µg/mL (≈ 0.569 µM)
[3]; Acinetobacter baumannii, W1, read-out: MIC
  MIC: 4 µg/mL (≈ 9.1 µM)
[4]; M6
  MIC: 1 to 2 µg/mL (≈ 2.28 to 4.55 µM)
[4]; NCTC13368, NCTC 13368
  MIC: 4 µg/mL (≈ 9.1 µM)
[4]; TW3
  MIC: 0.5 µg/mL (≈ 1.14 µM)
[5]; 319238/UR
  MIC: 16 µg/mL (≈ 36.4 µM)
[5]; LEC006
  MIC: 0.25 µg/mL (≈ 0.569 µM)
[5]; LEC007
  MIC: 0.125 µg/mL (≈ 0.284 µM)
[5]; LEC077
  MIC: 4 µg/mL (≈ 9.1 µM)
[5]; LEC081
  MIC: 2 µg/mL (≈ 4.55 µM)
[5]; NCTC10418, NCTC 10418
  MIC: 0.125 µg/mL (≈ 0.284 µM)
[5]; NCTC11954, NCTC 11954
  MIC: 0.125 µg/mL (≈ 0.284 µM)
[5]; NCTC12241, NCTC 12241
  MIC: 0.06 µg/mL (≈ 0.137 µM)
[5]; NCTC12923, NCTC 12923
  MIC: ≤ 0.125 µg/mL
[6]
  time-kill profile: rapid bactericidal activity
[7]; 1199B WT
  MIC: 0.008 µg/mL
[7]; 1199B adapted to 4 x MIC of Compound 7
  MIC: 0.008 µg/mL
[7]; 1199B adapted to 4 x MIC of Compound 46
  MIC: 0.03 µg/mL
[7]; 1199B adapted to 4 x MIC of Compound 50
  MIC: 0.125 µg/mL
[7]; 1199B adapted to 4 x MIC of Compound 51
  MIC: 0.015 µg/mL
[7]; 1199 WT
  MIC: 0.004 µg/mL
[7]; 1199 adapted to 4 x MIC of Compound 7
  MIC: ≤ 0.008 µg/mL
[7]; 1199 adapted to 4 x MIC of Compound 46
  MIC: ≤ 0.008 µg/mL
[7]; 1199 adapted to 4 x MIC of Compound 50
  MIC: 0.06 µg/mL
[7]; 1199 adapted to 4 x MIC of Compound 51
  MIC: 0.015 µg/mL
[7]; NCTC13616, NCTC 13616 WT
  MIC: 0.125 µg/mL
[7]; NCTC13616, NCTC 13616 adapted to 4 x MIC of Compound 7
  MIC: 0.25 µg/mL
[7]; NCTC13616, NCTC 13616 adapted to 4 x MIC of Compound 46
  MIC: 0.125 µg/mL
[7]; NCTC13616, NCTC 13616 adapted to 4 x MIC of Compound 50
  MIC: 0.25 µg/mL
[7]; NCTC13616, NCTC 13616 adapted to 4 x MIC of Compound 51
  MIC: 0.5 µg/mL
[8]
  efflux liability in reserpine assay: minimal shift
